Experimental data reported in article PMC6444592, “Citrullination of HP1γ chromodomain affects association with chromatin” (Epigenetics & Chromatin, 2019).
“Also recorded” adds a separate entry of the source.

What was measured:
H3K9me3(1–16) peptides = test: bio-layer interferometry (BLI); type: binding; conditions: 20 mM Hepes KOH pH 7.2, 70 mM KCl; GST fusion; association 120 s, dissociation 120 s; WT 28.0 μM, R38/9K 25.5 μM, R38/9A 28.3 μM and lower concentrations
Experimental: Recombinant mouse full-length HP1 wildtype and mutant proteins were expressed in (as GST fusion proteins), and purified from, Escherichia coli as described. Proteins were concentrated using Amicon Ultra centrifugation filters with a 30 kDa cutoff (Millipore), washed into binding buffer (20 mM Hepes KOH pH 7.2, 70 mM KCl, 1 mM DTT, 0.1% Tween-20, 5% glycerol). Protein concentrations were determined by Bradford protein assay against a BSA standard, and purity was verified by SDS-PAGE followed by Coomassie-blue staining. Real-time binding assays of GST-HP1γ were performed using the BLItz® system (ForteBio) in binding buffer (+ 0.1% BSA). Biotinylated H3(1–16) peptides (NH2-[…](me3)STGGKAP-Biotin) were immobilised to Dip and Read High Precision Streptavidin (SAX) Biosensors (ForteBio), and kinetics for a range of protein concentrations were measured under advanced kinetics settings (1. initial baseline measuring buffer only: 30 s, 2. loading of peptides onto sensors: 120 s, 3. effective baseline measurement: 30 s, 4. association of GST-HP1γ proteins: 120 s, 5. dissociation of GST-HP1γ proteins: 120 s). The data were normalised to the effective baseline signal by subtracting the average baseline value (150–180 s) from each data point (150–420 s). […] Raw data are summarised in Additional file 3: Table S1.

mESCs = test: pluripotency marker mRNA (RT-PCR) and morphology of mESCs; type: cell-based, mouse; conditions: mESCs stably expressing fusion protein; +/− LIF; n = 2
Experimental: Parental E14 mouse embryonic stem cell (mESC) line was profiled by transcriptome analysis, qPCR and potency assays and was routinely tested for mycoplasma contamination and tested negative. Cells were cultured in DMEM (Gibco) supplemented with 15% standard FCS (Gibco), 0.1 mM non-essential amino acids (Gibco), 1% penicillin/streptomycin, 2 mM L-glutamine (Gibco), 1 mM sodium pyruvate (Gibco), 0.1 mM β-mercaptoethanol (Life Technologies) and 10^6 units/l mLIF (ESGRO, Millipore). E14 cells were stored in incubators at 37 °C in 7.5% CO2 (100% humidity) and maintained in 0.1% gelatin coated 10-cm culture dishes with 1:6 passaging every 2 days. Media was changed on a daily basis. E14 ESCs expressing mouse mEos3.2–HaloTag-HP1 fusion proteins were generated by transfecting appropriate pSB7 plasmids into E14 cells using Lipofectamine 2000 transfection reagent (Invitrogen), followed by selection in 600 µg/ml geneticin (Life Technologies). After 2 weeks of geneticin selection, cells were sorted using a Sony SH800S cell sorter for the expression of mEos3.2. […]
Cells were lysed using QIAzol® lysis reagent (Qiagen) and total RNA was isolated using RNeasy® Mini Kit with in column DNase treatment (Qiagen). […] Relative expression was calculated with the 2^−ΔΔCt method, normalising to the housekeeping gene β-actin. Data were analysed using GraphPad Prism 7 software. […]

Substance	BLI binding, in words (H3K9me3(1–16) peptides)	effect of exogenous expression on pluripotency marker mRNA and morphology (mESCs)
HP1γR38/9A: HP1γ with alanine substitutions at amino acids 38 and 39 to mimic citrullination	begin to plateau at significantly lower amounts compared to the WT protein; also recorded: distinctly different kinetic behaviour compared to the WT protein	no discernible effect on mESC differentiation
HP1γWT: full-length mouse HP1γ wild type, as GST or mEos3.2–HaloTag fusion protein	binds exclusively to H3K9me3 peptides	no discernible effect on mESC differentiation
